# Tests used:
# [1] = tested on: liver dysfunction (hepatitis) induced by D-galactosamine; assay: Experiment II: effect on the liver dysfunction (hepatitis) induced by D-galactosamine, oral administration; type: in vivo, Rats of the SD series; conditions: Tables 3 and 4, 400 mg/Kg each time, D-galactosamine hydrochloride 200 mg/Kg hypodermically; for GPT Value: normal 34.8 ± 1.9, control 395.7 ± 49.3; for Alkali Phosphatase Value: normal 49.3 ± 4.4, control 67.4 ± 2.9; for GOT Value: normal 129.4 ± 12.6, control 573.7 ± 59.1
# Experimental: (§1) Rats of the SD series having a body weight of about 250 g were used as test animals. D-Galactosamine hydrochloride (250 mg/Kg each time) and the test compound (50 mg/Kg each time) were administered into the abdominal cavity according to the schedule described below. After termination of the experiment, blood was collected from the test animals, and the GOT value, GPT value and alkali phosphatase value, which are indicators of the degree of the liver dysfunction, were measured.
# (§2) The test compound was suspended in a 5% aqueous solution of gum arabic and was administered in the form of the suspension. D-Galactosamine hydrochloride was dissolved in distilled water, the pH value of the solution was adjusted to 7 by potassium hydroxide and the resulting solution was administered. The test compound was administered to a group consisting of 9 rats, and in place of the test compound, a 5% aqueous solution of gum arabic free of the test compound was administered to a control group consisting of 14 rats. Neither the test compound nor D-galactosamine hydrochloride was administered to a normal group consisting of 9 rats.
# The effect on the liver dysfunction (hepatitis) induced by D-galactosamine by oral administration was examined.
# D-galactosamine hydrochloride (200 mg/Kg each time) was hypodermically administered, and the test compound (400 mg/Kg each time) was orally administered. The test compound-administered group consisted of 9 rats, the control group consisted of 14 rats, and the normal group consisted of 8 rats. The administration schedule was as follows.
# (§3) Administration Schedule: [formula]
# Other test conditions were the same as in Experiment I.
# [2] = tested on: rats of the Wistar series; conditions: rat, in vivo, po, 4000 mg/kg
# Experimental: The compounds C, D, I and M were separately suspended in 5% aqueous solutions of gum arabic and the test composition were orally administered to rats of the Wistar series at a dose of 4000 mg/Kg.
# [3] = tested on: liver dysfunction (hepatitis) induced by D-galactosamine; assay: Experiment I: effect on the liver dysfunction (hepatitis) induced by D-galactosamine, test compound administered into the abdominal cavity; type: in vivo, Rats of the SD series; conditions: D-galactosamine hydrochloride 250 mg/Kg
# Experimental: The effect on the liver dysfunction (hepatitis) induced by D-galactosamine by administration into the abdominal cavity was examined.
# as §1, §2, §3
# [4] = Table 1, 50 mg/Kg each time, normal 32.3 ± 3.3, control 94.2 ± 6.9
# [5] = Table 1, 50 mg/Kg each time, normal 33.1 ± 2.3, control 509 ± 94
# [6] = Table 1, 50 mg/Kg each time, normal 127.0 ± 6.1, control 751 ± 130
# [7] = Table 2, 50 mg/Kg each time, normal 39.0 ± 2.4, control 992.3 ± 121.2
# [8] = Table 2, 50 mg/Kg each time, normal 48.9 ± 4.7, control 125.7 ± 4.9
# [9] = Table 2, 50 mg/Kg each time, normal 129.9 ± 10.1, control 1081.8 ± 90.3
Structure (SMILES),GPT Value [1],Alkali Phosphatase Value [1],GOT Value [1],death of rats [2],"Alkali Phosphatase Value [3, 4]","GPT Value [3, 5]","GOT Value [3, 6]","GPT Value [3, 7]","Alkali Phosphatase Value [3, 8]","GOT Value [3, 9]"
"CC(C)=CCC/C(C)=C/CC/C(C)=C/CCC(C)CC(=O)N1CCOCC1 (stereo not shown) [compound D, 4-[(E,E)-3,7,11,15-tetramethyl-6,10,14-hexadecatrienoyl]morpholine]",58.8 ± 5.5 carmen unit,53.1 ± 5.6 KA unit,84.8 ± 8.9 carmen unit,None of the rats died,28.5 ± 2.0 KA unit,94 ± 39 carmen unit,430 ± 58 carmen unit,–,–,–
"CC(C)CCCC(C)CCCC(C)CC(=O)N1CCOCC1 (stereo not shown) [compound A, 4-(3,7,11-trimethyldodecanoyl)morpholine]",62.1 ± 10.7 carmen unit,64.1 ± 4.6 KA unit,193.0 ± 18.5 carmen unit,–,31.9 ± 1.8 KA unit,46.8 ± 11 carmen unit,257.4 ± 31 carmen unit,–,–,–
"CC(C)=CCCC(C)=CCCC(C)=CCCC(C)=CC(=O)N1CCN(CCO)CC1 [compound L, 1-(3,7,11,15-tetramethyl-2,6,10,14-hexadecatetraenoyl)-4-(2-hydroxyethyl)piperazine]",–,–,–,–,–,–,–,138.1 ± 16.9 carmen unit,42.8 ± 1.8 KA unit,451.7 ± 37.9 carmen unit
"CC(C)=CCC/C(C)=C/CC/C(C)=C/CCC(C)CC(N)=O (stereo not shown) [compound E, (E,E)-3,7,11,15-tetramethyl-6,10,14-hexadecatrienamide]",–,–,–,–,32.1 ± 2.6 KA unit,64 ± 15 carmen unit,425 ± 24 carmen unit,–,–,–
"CC(C)=CCCC(C)=CCCC(C)=CCCC(C)=CC(N)=O [compound J, 3,7,11,15-tetramethyl-2,6,10,14-hexadecatetraenamide]",–,–,–,–,–,–,–,314.5 ± 65.9 carmen unit,49.9 ± 3.0 KA unit,617.0 ± 50.5 carmen unit
"CC(=CC(=O)N1CCOCC1)CCCC(C)CCCC(C)C (stereo not shown) [compound H, 4-(3,7,11-trimethyl-2-dodecaenoyl)morpholine]",–,–,–,–,–,–,–,511.3 ± 173.7 carmen unit,49.0 ± 1.9 KA unit,732.1 ± 147.3 carmen unit
"CC(C)=CCC/C(C)=C/CC/C(C)=C/CCC(C)CC(=O)N(C)C (stereo not shown) [compound F, (E,E)-N,N-dimethyl-3,7,11,15-tetramethyl-6,10,14-hexadecatrienamide]",–,–,–,–,28.0 ± 2.4 KA unit,90 ± 44 carmen unit,400 ± 75 carmen unit,–,–,–
"CC(C)CCCC(C)CCCC(C)CCCC(C)CC(=O)N1CCOCC1 (stereo not shown) [compound C, 4-(3,7,11,15-tetramethylhexadecanoyl)morpholine]",122.0 ± 16.1 carmen unit,46.7 ± 4.0 KA unit,231.1 ± 26.4 carmen unit,None of the rats died,23.5 ± 1.8 KA unit,40 ± 13 carmen unit,352 ± 34 carmen unit,–,–,–
"CC(C)=CCCC(C)=CCCC(C)=CCCC(C)=CC(=O)N(C)C [compound K, N,N-dimethyl-3,7,11,15-tetramethyl-2,6,10,14-hexadecatetraenamide]",–,–,–,–,–,–,–,193.8 ± 38.1 carmen unit,45.2 ± 1.8 KA unit,586.0 ± 56.5 carmen unit
"CC(C)=CCC/C(C)=C/CCC(C)CC(=O)N1CCOCC1 (stereo not shown) [compound B, 4-[(E)-3,7,11-trimethyl-6,10-dodecadienoyl]morpholine]",67.4 ± 7.3 carmen unit,62.9 ± 4.9 KA unit,233.3 ± 22.2 carmen unit,–,40.2 ± 2.4 KA unit,50.4 ± 16 carmen unit,316 ± 27 carmen unit,–,–,–
"CC(C)=CCCC(C)=CCCC(C)=CCCC(C)=CC(=O)N1CCOCC1 [compound M, 4-(3,7,11,15-tetramethyl-2,6,10,14-hexadecatetraenoyl)morpholine]",58.9 ± 7.3 carmen unit,59.4 ± 4.9 KA unit,178.4 ± 10.3 carmen unit,None of the rats died,–,–,–,–,–,–
"CC(=CC(=O)N1CCOCC1)CCCC(C)CCCC(C)CCCC(C)C (stereo not shown) [compound I, 4-(3,7,11,15-tetramethyl-2-hexadecaenoyl)morpholine]",154.9 ± 21.5 carmen unit,44.31 ± 3.1 KA unit,284.9 ± 36.4 carmen unit,None of the rats died,–,–,–,135.3 ± 46.4 carmen unit,35.4 ± 5.2 KA unit,659.3 ± 72.5 carmen unit
"CC(C)=CCC/C(C)=C/CC/C(C)=C/CCC(C)CC(=O)N1CCN(CCO)CC1 (stereo not shown) [compound G, 1-[(E,E)-3,7,11,15-tetramethyl-6,10,14-hexadecatrienoyl]-4-(2-hydroxyethyl)piperazine]",–,–,–,–,29.6 ± 2.3 KA unit,84 ± 17 carmen unit,414 ± 49 carmen unit,–,–,–

# Reference: patent publication US4639450A, “Polyprenylcarboxylic acid morpholides and pharmaceutical compositions” (Eisai Co., Ltd., priority 1979, dated 1987)
